Consider 15 compounds from patent US11040028B2, “Penicinotam derivative, preparation method and use thereof” (OCEAN UNIVERSITY OF CHINA, priority 2017, dated 2021).

Structures are written as SMILES.

Holding throughout (type): cell-based
Experiment [1] concerns mouse macrophages (RAW264.7). Description: Lipopolysaccharide-induced NO secretion in macrophages (Griess). As to conditions: Mus musculus, RAW264.7, 24 h, RAW264.7, LPS 1 μg/ml, a/b isomers given as first/second symbol, read-out: IC50 (μM), inhibition of lipopolysaccharide-induced NO secretion in macrophages. As for the experimental part:
The effects of the compounds of the present application on the lipopolysaccharide-induced NO secretion in macrophage was tested Principle: Anti-inflammatory drug activity screening is to detect the inhibitory effect of compounds on NO production in the mouse macrophages (RAW264.7). When immune cells are stimulated by microbial endotoxin, inflammatory mediators, etc., a large amount of induced NO synthase (iNOS) is produced, and thus NO is generated for immune response. Accordingly, the inhibition of NO production can serve as a direct indicator of the anti-inflammatory activity of the compound. The activity of the compound to inhibit NO production at the cellular level is directly evaluated in the abovementioned test model, thereby reflecting the anti-inflammatory activity of the compound. In this experiment, the content of NO in the medium was detected by Gris kit (Molecular probes, G-7921). Macrophages (Raw264.7) were cultured in DMEM medium containing 10% fetal bovine serum, with the cell concentration adjusted. The cells were seeded in 24-well cell culture plates, cultured in an incubator, and the test samples in different concentrations were added every other day. The blank medium was used as a blank control, and commercially available indomethacin and resveratrol were employed as positive controls. After the addition of lipopolysaccharide (LPS, 1 μg/ml), incubation was performed for 24 hours. Then the supernatant culture solution was taken, to […] reagent was added, and the absorbance value was measured by a microplate reader at 548 nm. Inhibition rate=([…])×100%.
Background: The Griess reaction detects nitrite, a stable product of nitric oxide.

In the next experiment the test system is BHK-21 cells. Description: Anti-fibrosis activity test: inhibition of BHK-21 cell proliferation (CCK-8). As to conditions: Mesocricetus auratus, BHK-21, 48 h, CCK-8, 48 hours after administration. The essentials: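 Proliferation inhibition was read as CCK-8 absorbance at 450 nm (2-hour development) relative to untreated blank, with IC50 fitted from the curve. Before that, adhered cells (2×10^4 cells/mL, 24 hours) had 48 hours' treatment at several concentrations, in triplicate, at 37° C/5% CO2; pirfenidone was the reference.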

Experiment [2] relates to human embryonic lung fibroblast IMR-90. Description: Anti-fibrosis activity test: inhibition of proliferation of human embryonic lung fibroblast IMR-90 (CCK-8). Conditions: human embryonic lung fibroblast IMR-90, CCK-8, 48 hours. The essentials:
(§1)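 IC50 values derive from CCK-8 absorbance (450 nm, 2 h reagent incubation) measured after a 48 h exposure to test compounds. Before dosing, cells plated at 2×10^4 cells/mL had attached for 24 h under 5% CO2 at 37° C; triplicate wells per concentration.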

Experiment [3] has as its system human hepatic stellate cells LX-2. Description: Anti-fibrosis activity test: inhibition of proliferation of human hepatic stellate cells LX-2 (CCK-8). Conditions: Homo sapiens, 48 h, human hepatic stellate cells LX-2, CCK-8, 48 hours. Put shortly:
as §1

Experiment [4] has as its system human dermal fibroblasts CCC-ESF-1. Description: Anti-fibrosis activity test: inhibition of proliferation of human dermal fibroblasts CCC-ESF-1 (CCK-8). As to conditions: Fibroblast; human dermal fibroblasts CCC-ESF-1, CCK-8, 48 hours. Put shortly: as §1
The subject of experiment [5] is human lung fibroblasts HFL1. Description: Anti-fibrosis activity test: inhibition of proliferation of human lung fibroblasts HFL1 (CCK-8). Conditions: Homo sapiens, HFL1, 48 h, human lung fibroblasts HFL1, CCK-8, 48 hours. The essentials: as §1
For experiment [6], the system named is human fibrosarcoma cells HT-1080. The experiment can be described thus: Anti-fibrosis activity test: inhibition of proliferation of human fibrosarcoma cells HT-1080 (CCK-8). Conditions: Homo sapiens, HT-1080, 48 h, human fibrosarcoma cells HT-1080, CCK-8, 48 hours. The essentials: as §1
The test system of experiment [7] is cardiac fibroblast RAT-iCell-C002. Description: Anti-fibrosis activity test: inhibition of proliferation of cardiac fibroblast RAT-iCell-C002 (CCK-8). As to conditions: Cardiac fibroblast, 48 h, cardiac fibroblast RAT-iCell-C002, CCK-8, 48 hours. Put shortly:
as §1

What is called IC50 is the concentration at which inhibition is half-maximal. Take `O=C(Oc1c2c(nc3ccc(F)cc13)-c1cccn1C2=O)c1ccco1` [Compound 150b, 7-fluoro-10-oxo-10H-pyrrolizino[1,2-b]quinolin-9-yl furan-2-carboxylate]: the half-inhibitory concentration (IC50) in experiment [1] was 1 to 10 µM; in the experiment on BHK-21 cells, 0.05 to 5 mM; in experiment [2], 0.05 to 5 mM; in experiment [3] it was less than 0.05 mM; in experiment [4] it was 0.05 to 5 mM; in experiment [5] it was 0.05 to 5 mM. For the same compound, the 50% inhibitory concentration (IC50) in experiment [6] and in experiment [7] was 0.05 to 5 mM in each case.

Turning to `O=C(O)Cn1c2c(c(=O)c3cc(F)ccc31)C(=O)n1cccc1-2` [Compound 153a, 2-(7-Fluoro-9,10-dioxo-9H-pyrrolizino[1,2-b]quinolin-4(10H)-yl)acetic acid], the IC50 in experiment [1] was 1 to 10 µM; with BHK-21 cells it was less than 0.05 mM; in experiment [2], 0.05 to 5 mM; in experiment [3] it was less than 0.05 mM; in experiment [4] it was 0.05 to 5 mM; in experiment [5], 0.05 to 5 mM. The half-inhibitory concentration (IC50) in experiment [6] and in experiment [7] was 0.05 to 5 mM each time.

As for `O=C(O)COc1c2c(nc3ccc(F)cc13)-c1cccn1C2=O` [Compound 153b, 2-((7-fluoro-10-oxo-10H-pyrrolizino[1,2-b]quinolin-9-yl)oxy)acetic acid], the IC50 in experiment [1] is 1 to 10 µM; in the experiment on BHK-21 cells, 0.05 to 5 mM; in experiment [2], 0.05 to 5 mM; in experiment [3] it was 0.05 to 5 mM; in experiment [4], 0.05 to 5 mM; in experiment [5] it was 0.05 to 5 mM. Besides, the IC50 in experiment [6] and in experiment [7] was 0.05 to 5 mM in each case.

`O=C1c2c([nH]c3ccc(F)cc3c2=O)-c2cccn21` [Compound 156a, 7-Fluoro-9H-pyrrolizino[1,2-b]quinoline-9,10(4H)-dione]: the IC50 in experiment [1] is 1 to 10 µM; in the experiment on BHK-21 cells, 0.05 to 5 mM; in experiment [2], 0.05 to 5 mM; in experiment [3] it was less than 0.05 mM; in experiment [4], 0.05 to 5 mM; in experiment [5], less than 0.05 mM. In addition, the half-maximal inhibitory concentration (IC50) in experiment [6] and in experiment [7] was 0.05 to 5 mM throughout.

Regarding `O=C1c2c(nc3ccc(F)cc3c2O)-c2cccn21` [Compound 156b, 7-fluoro-9-hydroxy-10H-pyrrolizino[1,2-b]quinolin-10-one], the IC50 in experiment [1] is 0.1 to 1 µM; in the experiment with BHK-21 cells, 0.05 to 5 mM; in experiment [2], 0.05 to 5 mM; in experiment [3], 0.05 to 5 mM; in experiment [4] it was 0.05 to 5 mM; in experiment [5], less than 0.05 mM. Further, the IC50 in experiment [6] and in experiment [7] was 0.05 to 5 mM each time.

In the case of `O=C1c2c([nH]c3ccc(Cl)cc3c2=O)-c2cccn21` [Compound 180a, 7-Chloro-9H-pyrrolizino[1,2-b]quinoline-9,10(4H)-dione], the half-inhibitory concentration (IC50) in experiment [1] fell in the range of 1 to 10 µM; in the experiment with BHK-21 cells it was 20 to 100 mM; in experiment [2], 0.05 to 5 mM; in experiment [3], 0.05 to 5 mM; in experiment [4] it was 0.05 to 5 mM; in experiment [5] it was 0.05 to 5 mM. Besides, the IC50 in experiment [6] and in experiment [7] was 0.05 to 5 mM throughout.

Consider `O=C1c2c(nc3ccc(Cl)cc3c2O)-c2cccn21` [Compound 180b, 7-chloro-9-hydroxy-10H-pyrrolizino[1,2-b]quinolin-10-one], for which the half-maximal inhibitory concentration (IC50) in experiment [1] was in the range of 1 to 10 µM; in the experiment on BHK-21 cells, 0.05 to 5 mM; in experiment [2] it was 0.05 to 5 mM; in experiment [3], 0.05 to 5 mM; in experiment [4], 0.05 to 5 mM; in experiment [5], 0.05 to 5 mM. The half-maximal inhibitory concentration (IC50) in experiment [6] and in experiment [7] was 0.05 to 5 mM throughout.

Regarding `N#Cc1ccc2c(c1)c(=O)c1c(n2-c2ccc(F)cc2)-c2cccn2C1=O` [Compound 199a, 4-(4-Fluorophenyl)-9,10-dioxo-4,10-dihydro-9H-pyrrolizino[1,2-b]quinoline-7-carbonitrile], the 50% inhibitory concentration (IC50) in experiment [1] is 1 to 10 µM; in the experiment with BHK-21 cells, less than 0.05 mM; in experiment [2], 0.05 to 5 mM; in experiment [3] it was 0.05 to 5 mM; in experiment [4] it was 0.05 to 5 mM; in experiment [5], 0.05 to 5 mM. For the same compound, the IC50 in experiment [6] and in experiment [7] was 0.05 to 5 mM throughout.

Turning to `N#Cc1ccc2nc3c(c(Oc4ccc(F)cc4)c2c1)C(=O)n1cccc1-3` [Compound 199b, 9-(4-fluorophenoxy)-10-oxo-10H-pyrrolizino[1,2-b]quinoline-7-carbonitrile], the IC50 in experiment [1] was 1 to 10 µM; in the experiment on BHK-21 cells, 0.05 to 5 mM; in experiment [2] it was 0.05 to 5 mM; in experiment [3], 0.05 to 5 mM; in experiment [4], 0.05 to 5 mM; in experiment [5] it was 0.05 to 5 mM. The IC50 in experiment [6] and in experiment [7] was 0.05 to 5 mM in each case.

Turning to `N#Cc1ccc2c(c1)c(=O)c1c(n2-c2ccc(Cl)cc2)-c2cccn2C1=O` [Compound 210a, 4-(4-Chlorophenyl)-9,10-dioxo-4,10-dihydro-9H-pyrrolizino[1,2-b]quinoline-7-carbonitrile], the half-inhibitory concentration (IC50) in experiment [1] was in the range of 1 to 10 µM; in the experiment with BHK-21 cells, 0.05 to 5 mM; in experiment [2], 0.05 to 5 mM; in experiment [3], 0.05 to 5 mM; in experiment [4], 0.05 to 5 mM; in experiment [5], 0.05 to 5 mM. The IC50 in experiment [6] and in experiment [7] was 0.05 to 5 mM each time.

For the compound `N#Cc1ccc2nc3c(c(Oc4ccc(Cl)cc4)c2c1)C(=O)n1cccc1-3` [Compound 210b, 9-(4-chlorophenoxy)-10-oxo-10H-pyrrolizino[1,2-b]quinoline-7-carbonitrile], the 50% inhibitory concentration (IC50) in experiment [1] was 1 to 10 µM; in the experiment on BHK-21 cells, 0.05 to 5 mM; in experiment [2] it was 0.05 to 5 mM; in experiment [3], 0.05 to 5 mM; in experiment [4], 0.05 to 5 mM; in experiment [5] it was 0.05 to 5 mM. Also, the IC50 in experiment [6] and in experiment [7] was 0.05 to 5 mM each time.

Consider `O=C1c2c(n(-c3ccc(F)cc3)c3ccc(C(F)(F)F)cc3c2=O)-c2cccn21` [Compound 259a, 4-(4-Fluorophenyl)-7-(trifluoromethyl)-9H-pyrrolizino[1,2-b]quinoline-9,10(4H)-dione], for which the concentration for half-maximal inhibition (IC50) was in the range of 1 to 10 µM in experiment [1]; 0.05 to 5 mM in the experiment with BHK-21 cells; 0.05 to 5 mM in experiment [2]; 0.05 to 5 mM in experiment [3]; 5 to 20 mM in experiment [4]; 0.05 to 5 mM in experiment [5]. Also, the half-maximal inhibitory concentration (IC50) in experiment [6] and in experiment [7] was 0.05 to 5 mM throughout.

As for `O=C1c2c(nc3ccc(C(F)(F)F)cc3c2Oc2ccc(F)cc2)-c2cccn21` [Compound 259b, 9-(4-fluorophenoxy)-7-(trifluoromethyl)-10H-pyrrolizino[1,2-b]quinolin-10-one], the IC50 was 1 to 10 µM in experiment [1]; 0.05 to 5 mM with BHK-21 cells; less than 0.05 mM in experiment [2]; 0.05 to 5 mM in experiment [3]; 5 to 20 mM in experiment [4]; 0.05 to 5 mM in experiment [5]. Besides, the IC50 in experiment [6] and in experiment [7] was 0.05 to 5 mM throughout.

`O=C1c2c(n(-c3ccc(Cl)cc3)c3ccc(C(F)(F)F)cc3c2=O)-c2cccn21` [Compound 276a, 4-(4-Chlorophenyl)-7-(trifluoromethyl)-9H-pyrrolizino[1,2-b]quinoline-9,10(4H)-dione]: the IC50 in experiment [1] was 0.1 to 1 µM; in the experiment on BHK-21 cells, less than 0.05 mM; in experiment [2], 0.05 to 5 mM; in experiment [3] it was 0.05 to 5 mM; in experiment [4] it was 0.05 to 5 mM; in experiment [5], 0.05 to 5 mM. The half-inhibitory concentration (IC50) in experiment [6] lay within 0.05 to 5 mM; in experiment [7], 5 to 20 mM.

Take `O=C1c2c(nc3ccc(C(F)(F)F)cc3c2Oc2ccc(Cl)cc2)-c2cccn21` [Compound 276b, 9-(4-chlorophenoxy)-7-(trifluoromethyl)-10H-pyrrolizino[1,2-b]quinolin-10-one]: the IC50 in experiment [1] was 1 to 10 µM; in the experiment on BHK-21 cells, 0.05 to 5 mM; in experiment [2], 0.05 to 5 mM; in experiment [3], 0.05 to 5 mM; in experiment [4], 0.05 to 5 mM; in experiment [5] it was 0.05 to 5 mM. Further, the IC50 in experiment [6] and in experiment [7] was 0.05 to 5 mM throughout.
